Legend:
[1] = tested on: OVA-induced contractions of sensitized guinea pig trachea; experiment: Cumulative OVA-induced contractions of isolated sensitized trachea in vitro (Assay IV); conditions: FIG. 4
From the text: The guinea pigs were ready for use after day 25 [20]. Under a protocol approved by the Animal Care and Use Committee of Taipei Medical University, the tracheae of guinea pigs (Hartley) were sacrificed and removed therefrom. The tracheae were carefully trimmed off the excessive surrounding tissues and cut into six segments. Each segment consisted of three cartilage rings. All segments were cut open opposite the trachealis. […] The composition of the normal Krebs solution was (mM): […] The tissues were suspended in normal Krebs solution under an initial tension of 1.5 g and allowed to equilibrate for at least 1 h with washing at 15-min intervals. After the tissues were precontracted with KCl (60 mM) and washed with normal Krebs solution, OVA (0.1-100 μg/ml) was cumulatively added, and contractions were allowed to reach a steady state at each concentration. […] The tension of precontraction induced by KCl before experiment was set as 100%.

[2] = tested on: cytokines (IL-2, IL-4, IL-5, TNF-α, IFN-γ) in BALF of OVA-sensitized BALB/c mice; experiment: Cytokines in BALF of OVA-sensitized mice (Assay III); assay type: in vivo, mouse; conditions: FIG. 3C
Procedure: Sensitization, airway challenge, and allergen provocation was carried out as described by Kanehiro et al with some modifications. The female BALB/c mice from 8 to 12 week of age were obtained from National Laboratory Animal Center (Taiwan), and maintained on diets free of ovalbumin (OVA). Mice were sensitized by an intraperitoneal (i.p.) injection of 20 μg of OVA emulsified in 2.25 mg aluminum hydroxide gel in a total volume of 100 μl on days 0 and 14. For comparison, some mice were not sensitized, but received sham injection. All mice were challenged via the airway by OVA (1% in saline) for 30 min on days 28, 29, and 30 by ultrasonic nebulization. […] AHR was assessed on day 73 (48 h after 1% OVA provocation) for each group. […] The AHR was measured in unrestrained animals by barometric plethysmography using a whole-body plethysmograph (WBP) (Buxco, Troy, N.Y., USA). Mice were placed into the main chamber of the WBP and nebulized first with phosphate buffer solution (PBS), then with increasing doses (6.25-50 mg/ml) of methacholine (MCh) for 3 min for each nebulization, followed by readings of breathing parameters for 3 min after each nebulization with determination of enhanced pause (Penh) values. […] The number of inflammatory cells was counted using a hemacytometer (Hausser Sci., Horsham, Pa., USA). […]

[3] = tested on: high affinity rolipram binding sites (HARBS, PDE4H); experiment: Binding to particulate HARBS of whole brain, displacement of [3H]-rolipram (Assay II); set-up: species or system guinea pig; conditions: HARBS 50% binding concentration over PDE4 IC50

Row | SMILES | OVA (both 10 and 100 μg/ml)-induced contractions ([1]; 30 μM preincubated 15 min) | OVA (100 μg/ml)-induced contractions ([1]; 3~30 μM preincubated 15 min, standardized by 60 mM KCl) | level of IL-5 in BALF ([2]; 3 and 10 μmol/kg i.p.) | enhancement of IL-2, IL-4, IL-5, TNF-α and IFN-γ levels in BALF ([2]; 3~30 μmol/kg, i.p.) | PDE4H/PDE4L ratio [3]
1 | COc1ccc(C2CC(=O)c3c(O)cc(O)cc3O2)cc1O (centres unmarked) [Hesperetin] | significantly antagonized | antagonized | not suppressed | significantly suppressed | 
2 | COc1cc(O)c2c(=O)c(-c3ccc(O)cc3)coc2c1 [Prunetin] |  |  |  |  | greater than 5
